Counter-ions that a name gives are not always drawn.
Target: human MCH-1 receptor (Homo sapiens, UniProt Q99705)
Assay: Binding assay for human melanin-concentrating hormone (MCH-1) receptor, radioligand displacement on CHO-K1 cell membranes
Details: for inhibition at 1 µM: read-out: MCH1 % inhibition @ 1 uM
Protocol: Nonspecific binding was determined in the presence of 50 μM 1-(5-(4-cyanophenyl)bicyclo[3.1.0]hexan-2-yl)-3-(4-fluoro-3-(trifluoromethyl)phenyl)-1-(3-(4-methylpiperazin-1-yl)propyl)urea. […] The filters were counted for radioactivity in a liquid scintillation counter (Tri-Carb 2100TR, Packard) using a scintillation cocktail (Ultima Gold MV, Perkin Elmer).
The results are expressed as a percent inhibition of the control radioligand specific binding. The IC50 value (concentration causing a half-maximal inhibition of control specific binding) and Hill coefficient (nH) were determined by non-linear regression analysis of the competition curve using Hill equation curve fitting.

human MCH-1 receptor, sequence (Q99705 whole entry): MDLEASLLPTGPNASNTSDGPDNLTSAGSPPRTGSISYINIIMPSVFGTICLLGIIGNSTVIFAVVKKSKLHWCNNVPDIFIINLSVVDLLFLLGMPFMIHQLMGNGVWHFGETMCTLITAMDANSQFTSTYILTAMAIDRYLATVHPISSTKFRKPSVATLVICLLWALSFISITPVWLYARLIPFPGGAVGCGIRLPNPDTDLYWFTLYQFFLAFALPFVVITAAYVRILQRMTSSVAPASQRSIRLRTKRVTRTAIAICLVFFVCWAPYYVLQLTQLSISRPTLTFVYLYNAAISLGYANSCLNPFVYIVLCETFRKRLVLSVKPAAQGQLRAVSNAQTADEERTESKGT

| Ki | inhibition at 1 µM | SMILES |
| --- | --- | --- |
| 3.4 nM | – | O=c1cc(OCc2ccccc2)ccn1-c1ccc2c3c(oc2c1)CCCNC3 [Example 40, 4-(Benzyloxy)-1-(2,3,4,5-tetrahydro-1H-benzofuro[3,2-c]azepin-8-yl)pyridin-2(1H)-one hydrochloride] |
| 5.7 nM | – | O=c1cc(OCc2ccccc2)ccn1-c1ccc2c3c(oc2c1)CCNCC3 [Example 41, 4-(Benzyloxy)-1-(2,3,4,5-tetrahydro-1H-benzofuro[2,3-d]azepin-8-yl)pyridin-2(1H)-one hydrochloride] |
| 9.7 nM | – | O=c1cc(OCc2cccc(C(F)(F)F)n2)ccn1-c1ccc2c3c(oc2c1)CCCNC3 [Example 43, 1-(2,3,4,5-Tetrahydro-1H-benzofuro[3,2-c]azepin-8-yl)-4-((6-(trifluoromethyl)pyridin-2-yl)methoxy)pyridin-2(1H)-one hydrochloride] |
| 13 nM | – | O=c1cc(OCc2ccc(F)cn2)cnn1-c1ccc2c3c(oc2c1)CCCNC3 [Example 44, 5-((5-Fluoropyridin-2-yl)methoxy)-2-(2,3,4,5-tetrahydro-1H-benzofuro[3,2-c]azepin-8-yl)pyridazin-3(2H)-one hydrochloride] |
| – | 60% | O=C1NCCc2c1sc1cc(-n3ccc(OCc4ccc(F)cn4)cc3=O)ccc21 [Example 54, 7-(4-((5-Fluoropyridin-2-yl)methoxy)-2-oxopyridin-1(2H)-yl)-3,4-dihydrobenzothieno[2,3-c]pyridin-1(2H)-one] |
| 11 nM | – | CC(C)N1CCc2c(sc3cc(-n4ccc(OCc5ccc(F)cn5)cc4=O)ccc23)C1 [Example 57, 4-((5-Fluoropyridin-2-yl)methoxy)-1-(2-isopropyl-1,2,3,4-tetrahydrobenzothieno[2,3-c]pyridin-7-yl)pyridin-2(1H)-one hydrochloride] |
| 34 nM | – | O=c1cc(OCc2ccc(F)cn2)cnn1-c1ccc2c3c(sc2c1)CNCC3 [Example 61, 5-((5-Fluoropyridin-2-yl)methoxy)-2-(1,2,3,4-tetrahydrobenzothieno[2,3-c]pyridin-7-yl)pyridazin-3(2H)-one] |
| 103 nM | – | Cc1ccc(COc2ccn(-c3ccc4c5c(sc4c3)CNCC5)c(=O)c2)cn1 [Example 62, 4-((6-Methylpyridin-3-yl)methoxy)-1-(1,2,3,4-tetrahydrobenzothieno[2,3-c]pyridin-7-yl)pyridin-2(1H)-one hydrochloride] |
| 33 nM | – | O=C1CN(CCc2ccc(Cl)cc2)CCN1c1ccc2c3c(sc2c1)CNCC3 [Example 63, 4-(4-Chlorophenethyl)-1-(1,2,3,4-tetrahydrobenzothieno[2,3-c]pyridin-7-yl)piperazin-2-one hydrochloride] |
| – | 35% | O=c1cc(OCc2ccc(F)cn2)ccn1-c1ccc2oc3c(c2c1)CNCC3 [Example 76, 4-((5-Fluoropyridin-2-yl)methoxy)-1-(1,2,3,4-tetrahydrobenzofuro[3,2-c]pyridin-8-yl)pyridin-2(1H)-one hydrochloride] |
| 8.3 nM | – | O=c1cc(OCc2ccc(F)cn2)ccn1-c1ccc2c3c(oc2c1)CCN1CCCC31 (stereo not shown) [Example 80, 4-((5-Fluoropyridin-2-yl)methoxy)-1-(1,2,3,5,6,11c-hexahydrobenzofuro[2,3-g]indolizin-9-yl)pyridin-2(1H)-one hydrochloride] |

Second part, the molecule before the results:

| SMILES | Ki | inhibition at 1 µM |
| --- | --- | --- |
| O=c1cc(OCc2ccc(F)cn2)ccn1-c1ccc2c3c(oc2c1)CCNCC3 [Example 39, 4-((5-Fluoropyridin-2-yl)methoxy)-1-(2,3,4,5-tetrahydro-1H-benzofuro[2,3-d]azepin-8-yl)pyridin-2(1H)-one hydrochloride] | 9 nM | – |
| O=c1cc(OCc2ccc(Cl)cn2)ccn1-c1ccc2c3c(oc2c1)CCNCC3 [Example 42, 4-((5-Chloropyridin-2-yl)methoxy)-1-(2,3,4,5-tetrahydro-1H-benzofuro[2,3-d]azepin-8-yl)pyridin-2(1H)-one hydrochloride] | 4.7 nM | – |
| O=c1cc(OCc2ccc(C(F)(F)F)nc2)ccn1-c1ccc2c3c(oc2c1)CCCNC3 [Example 45, 1-(2,3,4,5-Tetrahydro-1H-benzofuro[3,2-c]azepin-8-yl)-4-((6-(trifluoromethyl)pyridin-3-yl)methoxy)pyridin-2(1H)-one hydrochloride] | 29 nM | – |
| Cc1ccc(COc2ccn(-c3ccc4c5c(oc4c3)CCCNC5)c(=O)c2)cn1 [Example 46, 4-((6-Methylpyridin-3-yl)methoxy)-1-(2,3,4,5-tetrahydro-1H-benzofuro[3,2-c]azepin-8-yl)pyridin-2(1H)-one hydrochloride] | 47 nM | – |
| O=c1cc(OCc2ccc(C(F)(F)F)nc2)ccn1-c1ccc2c3c(oc2c1)CCNCC3 [Example 47, 1-(2,3,4,5-Tetrahydro-1H-benzofuro[2,3-d]azepin-8-yl)-4-((6-(trifluoromethyl)pyridin-3-yl)methoxy)pyridin-2(1H)-one hydrochloride] | 55 nM | – |
| O=c1cc(-c2ccc(C(F)(F)F)cc2)ccn1-c1ccc2c3c(oc2c1)CCCNC3 [Example 48, 1-(2,3,4,5-Tetrahydro-1H-benzofuro[3,2-c]azepin-8-yl)-4-(4-(trifluoromethyl)phenyl)pyridin-2(1H)-one hydrochloride] | 4.5 nM | – |
| CN1CCCc2oc3cc(-n4ccc(OCc5cccc(C(F)(F)F)n5)cc4=O)ccc3c2C1 [Example 49, 1-(2-Methyl-2,3,4,5-tetrahydro-1H-benzofuro[3,2-c]azepin-8-yl)-4-((6-(trifluoromethyl)pyridin-2-yl)methoxy)pyridin-2(1H)-one hydrochloride] | 22 nM | – |
| CC(=O)N1CCc2c(sc3cc(-n4ccc(OCc5ccc(F)cn5)cc4=O)ccc23)C1 [Example 53, 1-(2-Acetyl-1,2,3,4-tetrahydrobenzothieno[2,3-c]pyridin-7-yl)-4-((5-fluoropyridin-2-yl)methoxy)pyridin-2(1H)-one] | 39 nM | – |
| O=c1cc(OCc2ccc(F)cn2)ccn1-c1ccc2c3c(sc2c1)CCNC3 [Example 55, 4-((5-Fluoropyridin-2-yl)methoxy)-1-(1,2,3,4-tetrahydrobenzothieno[3,2-c]pyridin-7-yl)pyridin-2(1H)-one hydrochloride] | 2.7 nM | – |
| CCN1CCc2c(sc3cc(-n4ccc(OCc5ccc(F)cn5)cc4=O)ccc23)C1 [Example 56, 1-(2-Ethyl-1,2,3,4-tetrahydrobenzothieno[2,3-c]pyridin-7-yl)-4-((5-fluoropyridin-2-yl)methoxy)pyridin-2(1H)-one hydrochloride] | 9.5 nM | – |
| CN1CCc2c(sc3cc(-n4ccc(OCc5ccc(F)cn5)cc4=O)ccc23)C1 [Example 58, 4-((5-Fluoropyridin-2-yl)methoxy)-1-(2-methyl-1,2,3,4-tetrahydrobenzothieno[2,3-c]pyridin-7-yl)pyridin-2(1H)-one hydrochloride] | 6.2 nM | – |
| O=c1cc(OCc2ccc(F)cn2)ccn1-c1ccc2c3c(sc2c1)CN(CCF)CC3 [Example 59, 1-(2-(2-Fluoroethyl)-1,2,3,4-tetrahydrobenzothieno[2,3-c]pyridin-7-yl)-4-((5-fluoropyridin-2-yl)methoxy)pyridin-2(1H)-one hydrochloride] | 36 nM | – |
| O=C1CN(CCc2ccc(F)cn2)CCN1c1ccc2c3c(sc2c1)CNCC3 [Example 60, 4-(2-(5-Fluoropyridin-2-yl)ethyl)-1-(1,2,3,4-tetrahydrobenzothieno[2,3-c]pyridin-7-yl)piperazin-2-one hydrochloride] | 118 nM | – |
| O=c1cc(OCc2ccc(C(F)(F)F)nc2)ccn1-c1ccc2c3c(sc2c1)CNCC3 [Example 64, 1-(1,2,3,4-Tetrahydrobenzothieno[2,3-c]pyridin-7-yl)-4-((6-(trifluoromethyl)pyridin-3-yl)methoxy)pyridin-2(1H)-one hydrochloride] | 48 nM | – |
| O=c1cc(OCc2ccc(F)cn2)ccn1-c1ccc2c3c(oc2c1)CCN(CCF)C3 [Example 72, 1-(2-(2-Fluoroethyl)-1,2,3,4-tetrahydrobenzofuro[3,2-c]pyridin-7-yl)-4-((5-fluoropyridin-2-yl)methoxy)pyridin-2(1H)-one hydrochloride] | 29 nM | – |
| O=c1cc(OCc2ccccc2)ccn1-c1ccc2c3c(oc2c1)CCN1CCCC31 (stereo not shown) [Example 73, 4-(Benzyloxy)-1-(1,2,3,5,6,11c-hexahydrobenzofuro[2,3-g]indolizin-9-yl)pyridin-2(1H)-one hydrochloride] | 5.5 nM | – |
| O=c1cc(OCc2ccccc2)ccn1-c1ccc2oc3c(c2c1)CNCC3 [Example 74, 4-(Benzyloxy)-1-(1,2,3,4-tetrahydrobenzofuro[3,2-c]pyridin-8-yl)pyridin-2(1H)-one hydrochloride] | 373 nM | – |
| O=c1cc(OCc2ccc(F)cn2)ccn1-c1ccc2oc3c(c2c1)CNCCC3 [Example 75, 4-((5-Fluoropyridin-2-yl)methoxy)-1-(2,3,4,5-tetrahydro-1H-benzofuro[3,2-c]azepin-9-yl)pyridin-2(1H)-one hydrochloride] | – | 34% |
| O=c1cc(OCc2ccccc2)ccn1-c1ccc2oc3c(c2c1)CCNCC3 [Example 77, 4-(Benzyloxy)-1-(2,3,4,5-tetrahydro-1H-benzofuro[2,3-d]azepin-9-yl)pyridin-2(1H)-one hydrochloride] | 44 nM | – |
| O=c1cc(OCc2ccccc2)ccn1-c1ccc2oc3c(c2c1)CNCCC3 [Example 78, 4-(Benzyloxy)-1-(2,3,4,5-tetrahydro-1H-benzofuro[3,2-c]azepin-9-yl)pyridin-2(1H)-one hydrochloride] | – | 35% |
| O=c1cc(OCc2ccc(F)cn2)ccn1-c1ccc2oc3c(c2c1)CCNCC3 [Example 79, 4-((5-Fluoropyridin-2-yl)methoxy)-1-(2,3,4,5-tetrahydro-1H-benzofuro[2,3-d]azepin-9-yl)pyridin-2(1H)-one hydrochloride] | 78 nM | – |
| CC(C)N1CCCc2oc3cc(-n4ccc(OCc5cccc(C(F)(F)F)n5)cc4=O)ccc3c2C1 [Example 81, 1-(2-Isopropyl-2,3,4,5-tetrahydro-1H-benzofuro[3,2-c]azepin-8-yl)-4-((6-(trifluoromethyl)pyridin-2-yl)methoxy)pyridin-2(1H)-one hydrochloride] | 62 nM | – |
| CN1CCCc2oc3cc(-n4ccc(-c5ccc(C(F)(F)F)cc5)cc4=O)ccc3c2C1 [Example 82, 1-(2-Methyl-2,3,4,5-tetrahydro-1H-benzofuro[3,2-c]azepin-8-yl)-4-(4-(trifluoromethyl)phenyl)pyridin-2(1H)-one hydrochloride] | 8.2 nM | – |

— patent US20140163012A1, “PYRIDO-/AZEPINO-BENZOFURAN AND PYRIDO-/AZEPINO-BENZOTHIOPHENE MCH-1 ANTAGONISTS, METHODS OF MAKING, AND USE THEREOF” (Albany Molecular Research, Inc., priority 2012, published 2014)
